PubChem BioAssay AID330 (DTP/NCI, 2004)
Where “and” joins values, the source holds several entries; their conditions need not be identical. Equal values may be shown once. Toxic doses and inconclusive results are not listed. How the source made its calls: active means survival T/C of 150% or more; inactive means T/C below 125% in these data. Peptide text beside a SMILES is read from it.

Tested on: P388 leukemia ip, CD2F1 mice, survival T/C
Experiment: NCI In Vivo Anticancer Drug Screen. Data for tumor model P388 Leukemia (intraperitoneal) in CD2F1 (CDF1) mice
Details: endpoint: median survival time, higher = longer survival
In short: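 Mice carrying the transplanted tumor received test compound or vehicle. Survival was recorded in each group, and the value is the treated-group measurement divided by that of the vehicle-treated control group.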

[1] = dose: 50.0 mg/kg/injection, schedule: Q01DX005 (ip), vehicle: saline with Tween-80
[2] = dose: 100.0 mg/kg/injection, schedule: Q01DX005 (ip), vehicle: saline with Tween-80
[3] = dose: 200.0 mg/kg/injection, schedule: Q01DX005 (ip), vehicle: saline with Tween-80
[4] = dose: 50.0 mg/kg/injection, schedule: Q01DX009 (ip), vehicle: Klucel (hydroxypropylcellulose) (HPC)
[5] = dose: 100.0 mg/kg/injection, schedule: Q01DX009 (ip), vehicle: Klucel (hydroxypropylcellulose) (HPC)
[6] = dose: 200.0 mg/kg/injection, schedule: Q01DX009 (ip), vehicle: Klucel (hydroxypropylcellulose) (HPC)
[7] = dose: 400.0 mg/kg/injection, schedule: Q01DX009 (ip), vehicle: Klucel (hydroxypropylcellulose) (HPC)
[8] = dose: 100.0 mg/kg/injection, schedule: Q04DX003 (ip), vehicle: saline with Tween-80
[9] = dose: 200.0 mg/kg/injection, schedule: Q04DX003 (ip), vehicle: saline with Tween-80
[10] = dose: 50.0 mg/kg/injection, schedule: Q01DX009 (ip), vehicle: saline with Tween-80
[11] = dose: 100.0 mg/kg/injection, schedule: Q01DX009 (ip), vehicle: saline with Tween-80
[12] = dose: 200.0 mg/kg/injection, schedule: Q01DX009 (ip), vehicle: saline with Tween-80

Measured: T/C

Cc1cc(=O)c2cc3ccc4c5[nH]c(C)cc(=O)c5cc5ccc(c2[nH]1)c3c54
inactive: [1] 101 % of control | [2] 106 % of control | [3] 111 % of control

CC(=O)OC1C=CN(C(C)=O)C(SC(C)(C)C)C1(C)O (centres undefined)
inactive: [4] 101 % of control and 119 % of control | [5] 107 % of control and 112 % of control | [6] 113 % of control and 120 % of control | [7] 110 % of control

O=C1CSC(=S)N1c1ccc(Br)cc1
inactive: [4] 106 % of control | [5] 105 % of control | [6] 108 % of control

OC(CCl)COn1nnc2ccccc21 (centres undefined)
inactive: dose: 25.0 mg/kg/injection, schedule: Q01DX005 (ip), vehicle: saline with Tween-80 100 % of control | [1] 102 % of control | [2] 100 % of control | [8] 98 % of control | [9] 99 % of control | dose: 400.0 mg/kg/injection, schedule: Q04DX003 (ip), vehicle: saline with Tween-80 94 % of control

NC(=S)N/N=C1\C(=O)NC(=O)C1c1ccccc1 (centres undefined)
inactive: [1] 115 % of control | [2] 105 % of control

c1ccc(C2CC(c3ccccc3)c3ccccc3O2)cc1 (centres undefined)
inactive: dose: 100.0 mg/kg/injection, schedule: Q01DX001 (ip), vehicle: Klucel (hydroxypropylcellulose) (HPC) 87 % of control | dose: 200.0 mg/kg/injection, schedule: Q01DX001 (ip), vehicle: Klucel (hydroxypropylcellulose) (HPC) 90 % of control | dose: 400.0 mg/kg/injection, schedule: Q01DX001 (ip), vehicle: Klucel (hydroxypropylcellulose) (HPC) 96 % of control

CN(C)c1ccc2c(c1)Cc1cc(N=C3C=CC(=O)O3)ccc1-2
inactive: [10] 100 % of control | [11] 100 % of control | [8] 109 % of control | [12] 100 % of control | [9] 95 % of control

C[C@]12CC[C@@H]3c4ccc(OCCO)c([N+](=O)[O-])c4CC[C@H]3[C@@H]1CCC2=O
inactive: [1] 104 % of control | [2] 104 % of control | [3] 97 % of control

CCCCCCCCCCCCCCCCCc1n[nH]c(=S)o1
inactive: [10] 99 % of control | [11] 99 % of control | [12] 98 % of control

C=Cn1c([N+](=O)[O-])cnc1/C=C/c1ccc(C(=O)OCCN2CCCC2)cc1
inactive: dose: 12.5 mg/kg/injection, schedule: Q01DX001 (ip), vehicle: DMSO 105 % of control | dose: 25.0 mg/kg/injection, schedule: Q01DX001 (ip), vehicle: DMSO 98 % of control | dose: 50.0 mg/kg/injection, schedule: Q01DX001 (ip), vehicle: DMSO 104 % of control | dose: 100.0 mg/kg/injection, schedule: Q01DX001 (ip), vehicle: DMSO 100 % of control

COc1nc2c(ccn2C2OC(COC(C)=O)C(OC(C)=O)C(OC(C)=O)C2OC(C)=O)c(=O)n1C (centres undefined)
inactive: dose: 60.0 mg/kg/injection, schedule: Q01DX005 (ip), vehicle: saline with Tween-80 100 % of control | dose: 120.0 mg/kg/injection, schedule: Q01DX005 (ip), vehicle: saline with Tween-80 104 % of control | dose: 240.0 mg/kg/injection, schedule: Q01DX005 (ip), vehicle: saline with Tween-80 95 % of control

CC(C)C(NC(=O)C(N)CCCCN)C(=O)O (stereo not drawn) (H-Lys-Val-OH; configuration not given here)
inactive: dose: 100.0 mg/kg/injection, schedule: Q04DX003 (ip), vehicle: saline 96 % of control | dose: 200.0 mg/kg/injection, schedule: Q04DX003 (ip), vehicle: saline 97 % of control | dose: 400.0 mg/kg/injection, schedule: Q04DX003 (ip), vehicle: saline 97 % of control

CC(C)C12OC1C1OC13C1(C)CCC(O)CC1CC1OC13C2O (centres undefined)
inactive: dose: 0.03 mg/kg/injection, schedule: Q01DX009 (ip), vehicle: saline + alcohol 103 % of control and 101 % of control and 111 % of control | dose: 0.06 mg/kg/injection, schedule: Q01DX009 (ip), vehicle: saline + alcohol 102 % of control and 111 % of control | dose: 0.12 mg/kg/injection, schedule: Q01DX009 (ip), vehicle: saline + alcohol 115 % of control and 109 % of control and 107 % of control | dose: 0.25 mg/kg/injection, schedule: Q01DX009 (ip), vehicle: saline + alcohol 111 % of control and 106 % of control and 117 % of control | dose: 0.5 mg/kg/injection, schedule: Q01DX009 (ip), vehicle: saline + alcohol 115 % of control and 109 % of control | dose: 1.0 mg/kg/injection, schedule: Q01DX009 (ip), vehicle: saline + alcohol 109 % of control and 115 % of control | dose: 2.0 mg/kg/injection, schedule: Q01DX009 (ip), vehicle: saline + alcohol 111 % of control and 103 % of control and 106 % of control | dose: 4.0 mg/kg/injection, schedule: Q01DX009 (ip), vehicle: saline + alcohol 103 % of control and 100 % of control | dose: 8.0 mg/kg/injection, schedule: Q01DX009 (ip), vehicle: saline + alcohol 103 % of control and 100 % of control | dose: 16.0 mg/kg/injection, schedule: Q01DX009 (ip), vehicle: saline + alcohol 102 % of control and 103 % of control

CCn1c(O)c(N=O)c(=O)n(CC)c1=S
inactive: dose: 50.0 mg/kg/injection, schedule: Q04DX002 (ip), vehicle: saline with Tween-80 105 % of control | dose: 100.0 mg/kg/injection, schedule: Q04DX002 (ip), vehicle: saline with Tween-80 97 % of control

CC(=O)Nc1ccc(C(=O)C(C)Cl)cc1 (centres undefined)
inactive: [4] 100 % of control and 104 % of control and 105 % of control | [5] 105 % of control and 117 % of control and 89 % of control | [6] 99 % of control and 117 % of control and 123 % of control | [7] 105 % of control

C=CCSc1nc(N)nc(Nc2ccccc2)n1
inactive: dose: 100.0 mg/kg/injection, schedule: Q01DX001 (ip), vehicle: saline with Tween-80 98 % of control | dose: 200.0 mg/kg/injection, schedule: Q01DX001 (ip), vehicle: saline with Tween-80 92 % of control | dose: 400.0 mg/kg/injection, schedule: Q01DX001 (ip), vehicle: saline with Tween-80 87 % of control

Cc1cc(C)nc(NS(=O)(=O)c2ccc(N=c3c4ccccc4n(Cc4ccccc4)c4ccccc34)cc2)n1
inactive: [1] 98 % of control | [2] 88 % of control

COc1ccc2c(c1)[C@@]13CCCC[C@H]1[C@@H](C2)N(C)CC3(C)O (some centres undefined)
inactive: dose: 100.0 mg/kg/injection, schedule: Q04DX002 (ip), vehicle: Klucel (hydroxypropylcellulose) (HPC) 97 % of control | dose: 200.0 mg/kg/injection, schedule: Q04DX002 (ip), vehicle: Klucel (hydroxypropylcellulose) (HPC) 105 % of control

N#CC1(OC2OC(CO)C(O)C(O)C2O)C=CC(OS(=O)(=O)O)C1 (centres undefined)
inactive: dose: 25.0 mg/kg/injection, schedule: Q01DX005 (ip), vehicle: saline 103 % of control | dose: 50.0 mg/kg/injection, schedule: Q01DX005 (ip), vehicle: saline 100 % of control | dose: 100.0 mg/kg/injection, schedule: Q01DX005 (ip), vehicle: saline 116 % of control | dose: 200.0 mg/kg/injection, schedule: Q01DX005 (ip), vehicle: saline 97 % of control

COc1cc2c(c(OC)c1OC)-c1ccc(OC)c(=O)cc1[C@@H](NC=O)CC2
inactive: dose: 0.25 mg/kg/injection, schedule: Q01DX009 (ip), vehicle: saline 117 % of control

CCOC(=O)Nc1nc2ccccc2n1CN1CCN(C)CC1
inactive: dose: 25.0 mg/kg/injection, schedule: Q01DX005 (ip), vehicle: Klucel (hydroxypropylcellulose) (HPC) 99 % of control | dose: 50.0 mg/kg/injection, schedule: Q01DX005 (ip), vehicle: Klucel (hydroxypropylcellulose) (HPC) 102 % of control and 97 % of control | dose: 100.0 mg/kg/injection, schedule: Q01DX005 (ip), vehicle: Klucel (hydroxypropylcellulose) (HPC) 100 % of control and 107 % of control | dose: 200.0 mg/kg/injection, schedule: Q01DX005 (ip), vehicle: Klucel (hydroxypropylcellulose) (HPC) 113 % of control and 120 % of control
